Reference: paper PMC6331789, “Phytochemicals from Ruta graveolens Activate TAS2R Bitter Taste Receptors and TRP Channels Involved in Gustation and Nociception” (Molecules, 2015)
pEC50: −log10 of the molar value.

Columns and labels:
TRPM8 [1] = settings: cited from earlier work
TAS2R14 [2] = target: T1, TAS2R14 (Homo sapiens, UniProt Q9NYV8); experiment: In vitro calcium imaging assay on cloned TAS2R14 in transfected HEK293T cells; assay type: cell-based
T1 construct: expressed in transfected cells; host or cells: HEK293T
T1 sequence (Q9NYV8 1-317): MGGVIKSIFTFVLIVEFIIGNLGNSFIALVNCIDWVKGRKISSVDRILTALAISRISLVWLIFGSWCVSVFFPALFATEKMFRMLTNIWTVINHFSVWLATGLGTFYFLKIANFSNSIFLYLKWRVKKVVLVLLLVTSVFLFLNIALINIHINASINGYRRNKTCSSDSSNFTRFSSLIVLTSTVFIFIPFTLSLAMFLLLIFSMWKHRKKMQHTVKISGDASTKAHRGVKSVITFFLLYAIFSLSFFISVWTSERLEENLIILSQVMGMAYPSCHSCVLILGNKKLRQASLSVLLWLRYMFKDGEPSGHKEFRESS
Description: (§1) Pure phytochemicals were submitted to in vitro assays with a platform of twenty cloned receptors of the bitter taste TAS2R family and four receptors of the TRP family related to the perception of taste and somatosensory sensations. All experiments have been repeated three times, each time with four replicates. […] For simplicity, only those bitter taste receptors having reproducible positive assay, namely TASR10, 14 and 49, are reported (Table 1).
(§2) For those compounds showing activity on one or more receptor(s), the concentration/response curves were plotted and the EC50 calculated.
(§3) For the biological tests, several compounds were purchased as references from different suppliers (Sigma Aldrich, ChromaDex, Irvine, CA, USA, and Tocris Bioscience, Bristol, UK) and dissolved in assay buffer (130 mM NaCl, 5 mM KCl, 1 mM MgCl2, 2 mM CaCl2, 5 mM NaHCO3 and 20 mM HEPES, pH 7.4) or in a mixture of assay buffer and DMSO, never exceeding a final DMSO concentration of 0.5% (v/v) to avoid toxic effects and possible artefacts on transfected cells.
(§4) All human TAS2R and G15Gi1 cDNAs were produced as reported in Bassoli et al. cDNAs for human TRPA1-M5-M8-V1-V4 were cloned into a pcDNA6 expression vector (Invitrogen-Thermo Fisher, Waltham, MA, USA).
(§5) All experiments were performed using HEK293T cells (ATCC).
(§6) For the bitter platform experiments, cells were cultured, transfected and analyzed as previously described.
(§7) For the bitter platform experiments, data analyses were performed as previously described.
(§8) For the calculation of concentration-response curves, responses were calculated as the difference between maximal and minimal relative fluorescence unit (RFU) values in a selected time window (11–60 s) and were normalized to the basal well fluorescence (Time Point 1, before compound injection) in order to compensate for differences in cell density (∆F/F0). All of the experiments have been repeated three times, each time with four replicates. All of the results are averages of at least four replicates. Raw data are available in Supplementary Material, Figures S3–S6.

TRPM5 = target: T2, TRPM5 (Homo sapiens, UniProt Q9NZQ8); experiment: In vitro membrane potential dye assay (FLIPR) on HEK293T cells stably overexpressing TRPM5; assay type: cell-based; settings: concentration/response curve; values with ≥ estimated
T2 construct: expressed in transfected cells
T2 sequence (Q9NZQ8 1-1165): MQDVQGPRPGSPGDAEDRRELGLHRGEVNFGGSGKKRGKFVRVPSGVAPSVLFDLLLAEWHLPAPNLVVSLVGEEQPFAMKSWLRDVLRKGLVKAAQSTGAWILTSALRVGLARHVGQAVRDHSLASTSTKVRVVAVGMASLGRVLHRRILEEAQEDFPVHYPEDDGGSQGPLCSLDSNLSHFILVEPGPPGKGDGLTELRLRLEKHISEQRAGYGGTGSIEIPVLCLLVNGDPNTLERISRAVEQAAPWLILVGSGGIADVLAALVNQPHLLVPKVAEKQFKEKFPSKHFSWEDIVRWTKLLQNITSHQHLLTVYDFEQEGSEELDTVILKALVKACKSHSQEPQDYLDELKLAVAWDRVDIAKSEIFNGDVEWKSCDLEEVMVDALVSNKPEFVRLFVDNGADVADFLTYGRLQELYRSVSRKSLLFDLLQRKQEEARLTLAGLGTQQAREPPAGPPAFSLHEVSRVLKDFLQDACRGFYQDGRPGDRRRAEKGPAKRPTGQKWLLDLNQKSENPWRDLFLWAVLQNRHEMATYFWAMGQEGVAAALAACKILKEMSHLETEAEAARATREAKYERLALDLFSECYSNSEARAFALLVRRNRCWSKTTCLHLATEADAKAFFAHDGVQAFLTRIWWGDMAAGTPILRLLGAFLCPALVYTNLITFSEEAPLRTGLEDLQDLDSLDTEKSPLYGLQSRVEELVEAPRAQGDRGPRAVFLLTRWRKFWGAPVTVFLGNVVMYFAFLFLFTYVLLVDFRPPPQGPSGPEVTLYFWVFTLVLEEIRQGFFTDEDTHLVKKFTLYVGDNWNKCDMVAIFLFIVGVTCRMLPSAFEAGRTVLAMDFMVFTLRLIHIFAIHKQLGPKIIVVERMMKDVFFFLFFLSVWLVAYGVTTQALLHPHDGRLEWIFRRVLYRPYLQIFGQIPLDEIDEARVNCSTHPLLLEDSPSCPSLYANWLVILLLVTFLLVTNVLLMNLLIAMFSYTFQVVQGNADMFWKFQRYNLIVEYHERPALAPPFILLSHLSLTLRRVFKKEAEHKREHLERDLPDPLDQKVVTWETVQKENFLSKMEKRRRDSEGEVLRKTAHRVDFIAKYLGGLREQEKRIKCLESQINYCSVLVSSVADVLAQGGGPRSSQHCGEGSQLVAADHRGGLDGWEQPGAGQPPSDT
Description: as §1, §2, §3, §4, §5
(§9) For TRP platform experiments, cells were cultured in MEM/EBSS medium (ECB2071L EuroClone, Milan, Italy) plus 10% (v/v) fetal bovine serum (FBS) (26400-044 Gibco, Karlsruhe, Germany) and 1% (v/v) Pen/Strep 10K/10K stock (17-602E Lonza, Basel, Switzerland). Stable cell lines were generated overexpressing each TRP channel, and clones were selected with 500 µg/mL of G418 (ant-gn-5 Invivogen, Karlsruhe, Germany). To analyze TRP receptor responses, cells were plated at a concentration of 20,000 cells/well in 384-well plates (GR-4330 Twin Helix srl, Milan, Italy). Cellular responses were measured 24 h after seeding.
(§10) For TRPM5 experiments, cells were loaded 24 h after seeding with a Membrane Potential Dye (R8034 MDC) solution in assay buffer according to the manufacturer’s instructions and incubated at 37 °C for 1 h before acquisition. All experiments were performed using a fluorometric imaging plate reader (FLIPR^TETRA, Molecular Devices equipped with ICCD Camera from Stanford Photonics, INC, (Palo Alto, CA, USA) and kinetics were visualized with Molecular Devices’ Screenworks 3.0 (Sunnyvale, CA, USA).
as §8

TAS2R14 [3] = settings: cited from earlier work
TAS2R10 [4] = settings: cited from earlier work; for Selective agonism of TAS2R10 (literature): described in the literature, no reference given
TAS2R10 [5] = target: T3, TAS2R10 (Homo sapiens, UniProt Q9NYW0); experiment: In vitro calcium imaging assay on cloned TAS2R10 in transfected HEK293T cells; assay type: cell-based; settings: concentration/response curve; values with ≥ estimated, curve did not saturate; read-out: EC50 TAS2R10
T3 construct: expressed in transfected cells; host or cells: HEK293T
T3 sequence (Q9NYW0 1-307): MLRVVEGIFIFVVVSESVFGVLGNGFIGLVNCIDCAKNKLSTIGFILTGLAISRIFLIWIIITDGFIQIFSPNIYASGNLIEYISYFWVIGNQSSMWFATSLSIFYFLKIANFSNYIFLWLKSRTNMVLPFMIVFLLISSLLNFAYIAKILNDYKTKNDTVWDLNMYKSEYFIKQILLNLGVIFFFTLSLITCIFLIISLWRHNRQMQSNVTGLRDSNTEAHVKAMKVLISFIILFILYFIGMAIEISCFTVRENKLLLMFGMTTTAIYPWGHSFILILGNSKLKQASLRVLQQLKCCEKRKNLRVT
Description: as §1, §2, §3, §4, §5, §6, §7, §8

TAS2R49 [6] = target: T4, TAS2R49 (Homo sapiens, UniProt P59543); experiment: In vitro calcium imaging assay on cloned TAS2R49 in transfected HEK293T cells; assay type: cell-based; settings: concentration/response curve; read-out: EC50 TAS2R49
T4 construct: expressed in transfected cells; host or cells: HEK293T
T4 sequence (P59543 1-309): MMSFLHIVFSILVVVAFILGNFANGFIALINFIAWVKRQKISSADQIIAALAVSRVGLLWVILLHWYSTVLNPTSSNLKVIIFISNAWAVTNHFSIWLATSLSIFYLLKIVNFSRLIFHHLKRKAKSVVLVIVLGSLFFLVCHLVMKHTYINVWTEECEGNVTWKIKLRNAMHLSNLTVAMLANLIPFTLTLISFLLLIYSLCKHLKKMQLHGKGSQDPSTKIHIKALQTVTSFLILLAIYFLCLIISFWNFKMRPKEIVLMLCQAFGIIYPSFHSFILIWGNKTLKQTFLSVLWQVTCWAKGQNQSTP
Description: as §1, §2, §3, §4, §5, §6, §7, §8

TRPM8 [7] = target: T5, TRPM8 (Homo sapiens, UniProt Q7Z2W7); experiment: In vitro Fluo8-NW calcium assay (FLIPR) on HEK293T cells stably overexpressing TRPM8; assay type: cell-based; settings: concentration/response curve
T5 construct: expressed in transfected cells
T5 sequence (Q7Z2W7 whole entry): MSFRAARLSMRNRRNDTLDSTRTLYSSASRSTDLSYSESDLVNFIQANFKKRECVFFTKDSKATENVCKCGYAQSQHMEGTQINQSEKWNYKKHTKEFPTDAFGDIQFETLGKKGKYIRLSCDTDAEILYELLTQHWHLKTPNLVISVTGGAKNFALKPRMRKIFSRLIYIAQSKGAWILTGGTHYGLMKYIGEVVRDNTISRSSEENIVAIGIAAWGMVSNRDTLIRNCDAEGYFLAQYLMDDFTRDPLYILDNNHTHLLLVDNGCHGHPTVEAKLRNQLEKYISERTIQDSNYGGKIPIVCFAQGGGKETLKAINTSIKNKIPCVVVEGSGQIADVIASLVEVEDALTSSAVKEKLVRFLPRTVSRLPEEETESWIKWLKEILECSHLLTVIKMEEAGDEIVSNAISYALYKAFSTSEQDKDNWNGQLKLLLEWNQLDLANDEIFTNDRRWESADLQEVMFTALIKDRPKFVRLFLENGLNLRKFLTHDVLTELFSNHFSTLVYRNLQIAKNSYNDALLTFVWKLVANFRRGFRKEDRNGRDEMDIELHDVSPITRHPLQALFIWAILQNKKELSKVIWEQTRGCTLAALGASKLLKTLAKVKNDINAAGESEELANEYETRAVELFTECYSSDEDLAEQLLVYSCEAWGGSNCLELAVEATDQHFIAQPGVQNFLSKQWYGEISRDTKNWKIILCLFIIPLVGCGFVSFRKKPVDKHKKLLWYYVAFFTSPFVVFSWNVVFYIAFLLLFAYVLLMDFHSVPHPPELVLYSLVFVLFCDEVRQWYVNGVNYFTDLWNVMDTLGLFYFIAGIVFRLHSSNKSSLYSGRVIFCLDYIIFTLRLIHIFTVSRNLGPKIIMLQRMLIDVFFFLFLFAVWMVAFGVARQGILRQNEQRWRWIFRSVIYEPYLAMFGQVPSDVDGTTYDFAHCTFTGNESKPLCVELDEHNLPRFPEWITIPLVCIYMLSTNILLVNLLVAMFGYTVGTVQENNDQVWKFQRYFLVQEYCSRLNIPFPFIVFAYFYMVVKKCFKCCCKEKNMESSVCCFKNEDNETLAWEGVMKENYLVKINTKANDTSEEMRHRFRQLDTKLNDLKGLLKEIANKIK
Description: as §1, §2, §3, §4, §5, §9
For TRPA1-M8-V1-V4 experiments, a solution of Fluo8-NW calcium-sensitive dye (36316 AAT BioQuest, Sunnyvale, CA, USA) was prepared using the assaybuffer and diluting the kit components 1:2 according to the manufacturer’s instructions. Twenty-four hours after seeding, cells were incubated one hour at RT, loaded with 40 µL of Fluo8-NW solution for each well and incubated again for one hour at RT before data acquisition.
as §10, §8

TAS2R49 [8] = tested on: TAS2R49; parameters: method as in PMID 20022913; settings: cited from earlier work
bitter taste receptor = tested on: bitter taste receptor; parameters: method as in PMID 24117141; settings: cited from earlier work

CC[C@H]1CC2CN3CCc4c([nH]c5ccc(OC)cc45)[C@](C(=O)OC)(C2)[C@H]13 (stereo in doubt) [voacangine]
TRPM8 inhibition (literature) (TRPM8 [1]): potent TRPM8 inhibitor

COc1cccc2c1cc([N+](=O)[O-])c1c(C(=O)O)cc3c(c12)OCO3 [Aristolochic Acid, reference compound]
pEC50 (TAS2R14 [2]): 5.64

C[N+](C)(C)CCOC(N)=O [Carbachol, reference compound]
pEC50 (TRPM5): 5.37

O=c1ccc2ccccc2o1 [Coumarin]
Agonism of TAS2R14 (literature) (TAS2R14 [3]): known agonist
Agonism of TAS2R10 (literature) (TAS2R10 [4]): known agonist

CC[N+](CC)(CC(=O)Nc1c(C)cccc1C)Cc1ccccc1 [Denatonium Benzoate, reference compound]
pEC50 (TAS2R10 [5]): 5.08

Cc1nc2sccn2c(=O)c1CCN1CCC(=C(c2ccc(F)cc2)c2ccc(F)cc2)CC1 [Ritanserin, reference compound]
pEC50 (TAS2R49 [6]): 5.22

CCNC(=O)C1CC(C)CCC1C(C)C (stereo not drawn) [WS3, reference compound]
pEC50 (TRPM8 [7]): 5.40

O=C(O)c1cc(=O)c2c(OCC(O)COc3cccc4oc(C(=O)O)cc(=O)c34)cccc2o1 [cromolyn]
Agonism of TAS2R49 (literature) (TAS2R49 [8]): non-selective agonists

CC(=O)OC(C)(C)/C=C/C(=O)[C@](C)(O)[C@H]1[C@H](O)C[C@@]2(C)[C@@H]3CC=C4[C@@H](C=C(O)C(=O)C4(C)C)[C@]3(C)C(=O)C[C@]12C [cucurbitacin E]
Selective agonism of TAS2R10 (literature) (TAS2R10 [4]): selective agonists

OC(CCCN1CCCCC1)(c1ccccc1)c1ccccc1 [diphenidol]
Agonism of TAS2R49 (literature) (TAS2R49 [8]): non-selective agonists

CC[C@H]1OC(=O)[C@H](C)[C@@H](O[C@H]2C[C@@](C)(OC)[C@@H](O)[C@H](C)O2)[C@H](C)[C@@H](O[C@@H]2O[C@H](C)C[C@H](N(C)C)[C@H]2O)[C@](C)(O)C[C@@H](C)C(=O)[C@H](C)[C@@H](O)[C@]1(C)O [erythromycin]
Selective agonism of TAS2R10 (literature) (TAS2R10 [4]): selective agonists

O=c1cc(-c2ccc(O)c(O)c2)oc2cc(O)cc(O)c12 [luteolin]
Bitter taste receptor activation of flavonoids (literature) (bitter taste receptor): active

COc1ccc2c(c1OC)C(=O)O[C@@H]2[C@H]1c2c(cc3c(c2OC)OCO3)CCN1C [noscapine]
Selective agonism of TAS2R14 (literature) (TAS2R14 [3]; described in the literature, no reference given): selective agonist

O=c1c(O)c(-c2ccc(O)c(O)c2)oc2cc(O)cc(O)c12 [quercetin]
Bitter taste receptor activation of flavonoids (literature) (bitter taste receptor): still active, but with lower efficacy
